Assay results reported in patent US20150344535A1, “NEUROTROPHIN-TYROSINE KINASE RECEPTOR SIGNALING” (THE UNIVERSITY OF QUEENSLAND, priority 2012, published 2015).

Columns and labels:
[1] = test system: HEK293 cells; experiment: NGF-FITC binding by flow cytometry, non-transfected HEK293 cells
Description: (§1) Background fluorescence of HEK293 cells was non-transfected cells (±c29 or scrambled peptide treatment) treated with 26 nM NGF-FITC. For PC12 cells, the control population was cells that had not been treated with NGF-FITC. Analysis of real-time NGF-FITC receptor binding experiments was performed on 550,000-600,000 cells at 4° C. in serum free NB medium and binding kinetics were calculated from raw data files compressed to 50,000 binding events using FlowJo and MatLab Software. Data was plotted with the use of GraphPad Prism.
Only NGF-FITC preparations that promoted equivalent neurite outgrowth of PC12 cells to that of unlabelled NGF were used in binding experiments. To investigate NGF binding, PC12 or transfected HEK293 cells were serum starved for 4 hours, harvested, washed with Dulbecco's Modified Eagle Medium (DMEM), and counted. When used, c29 or scrambled peptide were added to cultures for the third hour of the serum starvation procedure. […] For binding competition assays, following 1 hour in NGF-FITC, cells were washed with ice-cold PBS containing 0.1% normal bovine serum and incubated on ice with unlabeled NGF at concentrations ranging from 100 pM to 10 μM for 30 minutes, then washed twice in PBS before being analysed on a BD Flow Cytometer FACS Scan (Becton-Dickinson).

[2] = test system: TrkA and p75^NTR; experiment: Surface biotinylation of receptors in PC12 cells; type: cell-based; settings: 1 μM peptide, with or without NGF
Description: FIG. 10: The juxtamembrane domain of p75^NTR increases the association of NGF to cells expressing TrkA. (A and B) Dose response graphs of the proportion (%) of PC12 cells with fluorescence intensity above background following treatment with 26 […] NGFFITC, a FITC-conjugated antibody to the extracellular domain of p75^NTR (A), or an antibody to TrkA (detected using an anti-rabbit Alexa 594 secondary) (B), after pretreatment with increasing concentrations of […] peptide. (n=3 experiments per data point; mean±SEM *p<0.05, **p<0.01) (C) Representative western blots (WB) of TrkA and p75^NTR present in streptavidin precipitates (surface biotin), or lysate flow through of PC12 cells that had been treated for 1 hour with NGF and/or c29 and scrambled (SC) peptide, prior to the surface proteins being labelled with biotin for 90 minutes on ice.

[3] = test system: PC12 cells; experiment: NGF-FITC binding by flow cytometry, PC12 cells; settings: NGF-FITC, c.f. PC12
Description: The NGF was conjugated to FITC by standard methods and detailed flow cytometry acquisition and analysis. For NGF-FITC conjugation 400 μg βNGF in 200 μl pH 8.5 NaHCO3 buffer was mixed with 5-10 μl of 10 mg/ml FITC in 100 μl DMSO for 10 hours at 4° C. on an orbital shaker set to 100 rpm. The excess FITC was removed by dialysis against 3 changes of 5 L of 10 mM Tris, 150 mM NaCl, 0.2% acetic acid, pH 8.2 for 24 hours at 4° C. Conjugate F/P characterization was determined by measuring absorbance at 280 nm and 495 nm according to manufacturer's instructions. Biological activity of the NGF-FITC conjugate was tested by performing PC12 cell neurite outgrowth assays unlabelled NGF, and comparing the levels of neuritogenesis. NGF-FITC conjugates were used within 4 weeks of synthesis.
For the flow cytometry NGF binding assays, fluorescence cell parameters of at least 20,000 events for PC12 cells and 100,000 events for HEK293 cells were acquired by flow cytometry list mode and measurements were performed on a single cell basis (with compensation for double event counting). Dead cells and debris were gated out of the analysis on the basis of forward scatter fluorescence, and mean, median and maximal fluorescence values of the gated cell populations were analysed using FACS Diva Software (Becton-Dickinson Biosciences) and FACS Express Software (Becton-Dickinson Biosciences).
as §1
Only NGF-FITC preparations that promoted equivalent neurite outgrowth of PC12 cells to that of unlabelled NGF were used in binding experiments. To investigate NGF binding, PC12 or transfected HEK293 cells were serum starved for 4 hours, harvested, washed with Dulbecco's Modified Eagle Medium (DMEM), and counted. When used, c29 or scrambled peptide were added to cultures for the third hour of the serum starvation procedure. 1×10^7 cells/ml suspended in 500 μl of serum-free DMEM were incubated with 26 nM NGF-FITC on ice for 60 minutes before analysis. For binding competition assays, following 1 hour in NGF-FITC, cells were washed with ice-cold PBS containing 0.1% normal bovine serum and incubated on ice with unlabeled NGF at concentrations ranging from 100 pM to 10 μM for 30 minutes, then washed twice in PBS before being analysed on a BD Flow Cytometer FACS Scan (Becton-Dickinson).
First, to determine the concentration of c29 required to modulate NGF binding, c29 levels were titrated with a fixed concentration of NGF-FITC.

[4] = test system: p75^FL; experiment: Production of endogenous p75^CTF or p75^ICD fragments in p75^FL-transfected HEK293 cells; type: cell-based; settings: vs untreated cells, data not shown
[5] = test system: pErk1/2 and pAkt; experiment: Western blot of pErk1/2 and pAkt in PC12 cell lysates; type: cell-based; settings: absence of NGF, 24 hours
Description: In biochemical experiments, PC12 and HEK293 cells were lysed for 20 minutes on ice in lysis buffer as described by (Ceni et al., 2010). Briefly, the lysis buffer contained 10 mM Tris-HCl, 150 mM NaCl, 2 mM EDTA, 1% (v/v) NP-40, 1% (v/v) TX-100, 10% Glycerol, 1 mM PMSF, 1 mM Sodium Orthovanadate, 1 μM BB94, 1% (v/v) Roche protease inhibitor cocktail and pH 8.0 (Ceni et al., 2010).
Immunoprecipitation was performed by the addition of 75 μl (1:2) protein-G sepharose: PBS and incubation end-over-end for 16 hours at 4° C. The immunoprecipitate was washed 4 times with 1 ml of PBS then eluted in 60 μl 2×LDS sample buffer. For immunoblotting, samples were boiled for 5 minutes, separated by SDS-PAGE and transferred onto nitrocellulose membranes, then western blotted using standard protocols (see Example 1 for antibodies used).
The observed functional effects on neurite outgrowth and survival were next correlated with enhanced activation of signal transduction pathways that mediate the trophic effects of TrkA. Lysates of cells treated for 24 hours with NGF alone or in combination with c29 or scrambled peptide were immunoblotted for pErk1/2 (neurite outgrowth), and the serine/threonine protein kinase Akt (survival). […] Total levels of Erk1/2 or Akt were unaffected by any treatment (FIG. 6 A, B).

[6] = test system: primary E13 motor neurons; experiment: Primary motor neuron survival and growth factor withdrawal; type: cell-based, mouse; settings: 1 ng/ml BDNF plus NGF
Description: Briefly, pregnant mothers were sacrificed by cervical dislocation and the uterus removed by Caesarean section and placed in Neurobasal medium. Lumbar spinal cords were dissected from E13 embryos on ice. Batches of 2 or 3 spinal cords were incubated in 1 mL 0.05% trypsin-ETDA for 10 minutes at 37° C. in 15 mL tubes. To prevent further trypsinisation, 0.14 mg/mL trypsin inhibitor solution was added and the tissue centrifuged at 100×g for 7 minutes, without acceleration or deceleration. The supernatant was removed and the spinal cord tissue was resuspended in 1 mL of Neurobasal Medium (NB). In order to obtain a single cell suspension, each batch of 2-3 spinal cords was agitated manually for 2 minutes. The suspension was allowed to settle and the supernatant collected after being filtered through a 100 μm sieve. The remaining tissue was further triturated ˜8 times through a P200 pipette and filtered through a 100 μm sieve. The combined supernatants were then separated by centrifugation on a 5 ml cushion of 9% (vol/vol) OptiPrep® gradient in NB containing 2% B27 supplement for 45 min at 850×g, without acceleration or deceleration. To prevent toxicity following Optiprep® separation, the layer containing MNs was harvested into 10 mL of NB containing 10% HS, and the cell suspension was centrifuged at 900×g for 7 minutes at 24° C., without acceleration or deceleration. The supernatant was removed and the cell pellet was resuspended in 1 mL of NB medium.
The number of viable motor neurons was counted on a haemocytometer using 0.08% trypan blue and neurons plated in 4-well culture dishes at a density of 3,000 cells per well in 100 μL NB containing 10% HS. […] Primary motor neurons were maintained at 37° C. in a humidified atmosphere with 5% CO2 and culture medium was replaced at day 1 and 3. Phase contrast images of motor neurons were taken using an Olympus (6IX81) microscope after motor neurons were grown in vitro for up to 7 days.
To assess the effects of c29 peptide on motor neuronal survival in limiting growth factor concentrations, isolated spinal motor neurons were plated and treated with 0.01, 0.1 or 1.0 ng/ml of BDNF in the presence of 1 μm PTD4-linked c29 or scrambled peptide, and cultured for 5 days with the addition of fresh BDNF and peptide treatments on day 2 and 4. For growth factor-withdrawal assays, following initial plating in 1 ng/ml of BDNF, CNTF or GDNF, cultures were washed four times with serum-free Neurobasal (NB) medium, after which the medium was replaced with medium containing 1-0.01 ng/ml of BDNF, CNTF or GDNF and 1 μM PTD4-linked c29 or scrambled peptides, as indicated. For assays investigating the effect of c29 on NGF-mediated motor neuron death, cultures were grown in 1 ng/ml BDNF, CNTF or GDNF for 1 day, before being treated with 100 ng/ml 2.5S NGF in and 1 μM PTD4-linked c29 or scrambled peptide, as indicated. Motor neurons were counted on day 1, and to assess the effects of various treatments days 3 and 5 (4 separate 10×10 grid fields of each well per experiment).

[7] = test system: PC12 cells; experiment: PC12 cell neurite outgrowth in response to NGF; type: cell-based; settings: 100 ng/ml NGF, day 5, peptide 1 μM, vs untreated cultures
Description: To assess the effect of p75^NTR constructs (FIG. 2) or c29 peptide on TrkA-mediated neuritogenesis, transfected PC12 cells were grown in the presence of 100 ng/ml NGF for 3 days, with fresh medium and NGF treatments added on day 2. Cells were then imaged live on an Olympus (IX81) microscope fitted with a CO2 atmospheric chamber, using analySIS software. Four random images of 80-100 cells were taken for each treatment condition and images were determined by measuring polygon neurite length of all cells in each image. Data analysis was performed using Graphpad PRISM.
Once PC12 cells are fully differentiated, they become dependent on NGF for survival (Greene, 1978), but can survive if grown in the presence of lower concentrations of NGF (Greene and Tischler, 1976). To determine if c29 could potentiate TrkA-mediated signals, PC12 cells were cultured in the presence of NGF concentrations ranging from 1-100 ng/ml for 5 days, following serum starvation and pre-incubation with c29, scrambled control peptide or no peptide (FIG. 5A). […] Peptides (1 μM) were added to the cultures every 48 hours at the time of NGF addition and medium exchange.

[8] = Long term potentiation (LTP) in the hippocampus in vivo; parameters: species or system mouse
From the text: In further support of this, LTP was induced in mice by standard methods, as previously described: Kameda et al. Transl Psychiatry. 2012 Jan. 31; 2:e72. Activation of latent precursors in the hippocampus is dependent on long-term potentiation. […] BDNF acting via TrkB is well established to enhance this type of synaptic activity, including specifically hippocampal late-phase LTP at CA1-CA3 synapses (as measured here), and mice with reduced BDNF secretion show deficits in this LTP (e.g. Y. Lu et al., 2008; An et al., 2008; Ninan et al., 2010). […] In FIG. 13, c29 10 mg/kg: n=3 animals; c29 5 mg/kg: n=2 animals; scrambled 10 mg/kg: n=3 animals, c57: n=2 animals.

[9] = test system: motor neurons; experiment: Motor neuron survival in SOD1G93A mutant mice; type: in vivo, mouse
Description: To determine whether c29 could reduce neuron death in a motor neuron mouse model, 60 day postnatal SOD1G93A mutant mice were injected subcutaneously by osmotic pump with 5 mg/kg of TAT-c29, scrambled peptide, or the peptide vehicle. After 115 days postnatal, neuron survival in the […] was determined.

[10] = test system: C7-8 spinal cord motor neurons; experiment: Motor neuron axotomy (median and ulnar nerve) in neonatal rat; type: in vivo; settings: four day old rat, unilateral axotomy of the ulnar nerve, FIG. 7E
Description: Median and ulnar nerve axotomy was performed on 4 day-old Wistar rat pups as previously described (Cheema et al., 1996). Peptides (c29 and vehicle only; 100 nM) were applied via a 1 mm^3 cube of pluronic gel foam that was sutured to the proximal axonal stump (Cheema et al., 1996). After 5 days the animals were perfused with a 4% solution of paraformaldehyde in phosphate buffer. Cervical spinal cords were removed, after which serial sections were cut at 40 μm, mounted onto gelatin-coated slides and stained in 0.1% cresyl violet. Details of the counting procedure have been described previously (Cheema et al., 1994).
We next investigated whether c29 could prevent motor neuron death following growth factor withdrawal in vivo using a neonatal rat axotomy model. Following unilateral median and ulnar nerve transections of postnatal day 4 (P4) rat pups, c29 or the vehicle protein transduction domain (PTD4) was applied to the proximal site of transaction in a small cube of gel foam. After a 5-day recovery, the number of surviving C7-8 spinal cord motor neurons relative to the contralateral side was determined by histological counts. Such an axotomy causes 50% of the ipsilateral motor neurons to die (Cheema et al., 1996), with control peptide treatment having no effect on this degree of cell death (FIG. 7E, F). […]

Sequence	fluorescence of nontransfected cells incubated with peptide and NGF-FITC [1]	surface or total receptor levels of TrkA and p75^NTR [2]	% of cell population with FITC above background [3] [%]	Maximal fluorescence per cell of the population [3] [%]	Mean fluorescence per FITC-positive cell [3] [%]	Median population fluorescence [3] [%]	rate of production of endogenous p75^CTF or p75^ICD fragments [4]	pAkt signalling [5]	pErk1/2 signalling [5]	NGF-induced cell death of motor neurons [6]	median neurite outgrowth [7]	LTP in the hippocampus ([8]; 5 mg/kg I.P, after the high frequency train)	LTP in the hippocampus ([8]; 10 mg/kg i.p., vs scrambled peptide- or vehicle-treated animals)	enhancement of motor neuron survival ([9]; 5 mg/kg subcutaneously by osmotic pump from 60 days postnatal, read at 115 days postnatal) [%]	motor neuron number ([9]; 5 mg/kg, 115 days postnatal, equivalent of wild-type)	protection from motor neuron loss [10]
SKGQVCRNQPGQNKPEPANKSWKETPLRN [SC, randomly scrambled version of c29, reference compound]	only background levels of fluorescence	no significant difference	100.3 ± 5.1	100.4 ± 9.6	95.3 ± 7.4	97.0 ± 3.8	did not differ significantly	no effect	no effect	no effect	no difference	–	–	–	–	–
YARAAARNARAKRWNSCKQNKQGANSRPVNQTPPPEGEKL (TAT-c29 - Fusion of TAT with c29)	–	–	–	–	–	–	–	–	–	–	–	transient enhancement of LTP lasting only the first 6 minutes	enhanced LTP	30	10 motor neurons per section per dorsal horn	significant protection from motor neuron loss
